Tests used:
Assay in all cases: relative viability (nuclei count vs DMSO), 5 days (fraction); higher = more cells survive
[1] = compound: CC(C)N(CCCNC(=O)Nc1ccc(C(C)(C)C)cc1)C[C@H]1O[C@@H](n2ccc3c(N)ncnc32)[C@H](O)[C@@H]1O + CC(C)C[C@H](NC(=O)[C@H](Cc1ccccc1)NC(=O)c1cnccn1)B(O)O [Bortezomib] (partner 0.002 µM)
Summary of the method: (§1)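 Relative viability was taken as the ratio of nuclei in treated wells to nuclei in vehicle wells. Lung cancer cell lines in 1536-well plates received compounds by pin tool one day after seeding, either one drug alone or a fixed anchor-drug dose plus five library-drug doses (not always all listed) in √10 steps. Nuclei were counted on 4× images after 5 days of treatment, and values are medians of duplicate plates.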

[2] = compound: CC(C)N(CCCNC(=O)Nc1ccc(C(C)(C)C)cc1)C[C@H]1O[C@@H](n2ccc3c(N)ncnc32)[C@H](O)[C@@H]1O + NC(=O)Nc1cc(-c2cccc(F)c2)sc1C(=O)N[C@H]1CCCNC1 [AZD7762] (partner 0.2 µM)
Summary of the method: as §1

[3] = compound: CC(C)N(CCCNC(=O)Nc1ccc(C(C)(C)C)cc1)C[C@H]1O[C@@H](n2ccc3c(N)ncnc32)[C@H](O)[C@@H]1O + CC(=O)c1c(C)c2cnc(Nc3ccc(N4CCNCC4)cn3)nc2n(C2CCCC2)c1=O [Palbociclib] (partner 0.5 µM)
Summary of the method: as §1

Shikonin + Alpelisib = compound: CC(C)=CC[C@@H](O)C1=CC(=O)c2c(O)ccc(O)c2C1=O [Shikonin] + Cc1nc(NC(=O)N2CCC[C@H]2C(N)=O)sc1-c1ccnc(C(C)(C)C(F)(F)F)c1 [Alpelisib] (partner 2 µM)
Summary of the method: as §1

Cell Line | relative viability ([1]; first compound 0.08 µM) | relative viability ([1]; first compound 0.253 µM) | relative viability ([1]; first compound 0.8 µM) | relative viability ([1]; first compound 2.53 µM) | relative viability ([1]; first compound 8 µM) | relative viability ([2]; first compound 0.08 µM) | relative viability ([2]; first compound 0.253 µM) | relative viability ([2]; first compound 0.8 µM) | relative viability ([2]; first compound 2.53 µM) | relative viability ([2]; first compound 8 µM) | relative viability ([3]; first compound 0.08 µM) | relative viability ([3]; first compound 0.253 µM) | relative viability ([3]; first compound 0.8 µM) | relative viability ([3]; first compound 2.53 µM) | relative viability ([3]; first compound 8 µM) | relative viability (Shikonin + Alpelisib; first compound 0.01 µM) | relative viability (Shikonin + Alpelisib; first compound 0.1 µM) | relative viability (Shikonin + Alpelisib; first compound 0.3162 µM) | relative viability (Shikonin + Alpelisib; first compound 1 µM)
LCLC-97TM1 | 0.681 | 0.686 | 0.493 | 0.422 | 0.631 | 0.233 | 0.266 | 0.354 | 0.235 | 0.147 | 0.195 | 0.247 | 0.218 | 0.236 | 0.252 | 0.246 | 0.238 | 0.25 | 0.292
PC-14 | 0.83 | 0.852 | 0.859 | 1 | 0.743 | 0.321 | 0.364 | 0.401 | 0.274 | 0.287 | 0.467 | 0.439 | 0.586 | 0.444 | 0.496 | 0.933 | 1.01 | 1.07 | 1.07
NCI-H1355 | 1.15 | 1.2 | – | 1.22 | 1.08 | 0.703 | 0.68 | 0.642 | 0.75 | 0.695 | 0.379 | 0.427 | 0.363 | 0.386 | 0.392 | 0.819 | 0.823 | 0.943 | 0.927
HOP-62 | 0.599 | 0.854 | 0.132 | 0.605 | 0.361 | 0.681 | 0.51 | 0.517 | 0.777 | 0.322 | 0.46 | 0.37 | 0.356 | 0.361 | 0.371 | 1.11 | 1.37 | 1.2 | 0.707
NCI-H2087 | 0.861 | 0.841 | 0.25 | 0.99 | 0.857 | 1.31 | 1.26 | 1.51 | 1.38 | 1.29 | 0.29 | 0.235 | 0.276 | 0.203 | 0.269 | 1.15 | 0.967 | 1.12 | 1.04
